The text below walks through data of US4260761A, “Intermediates for the preparation of octahydro-1H-benzo[4,5]furo[3,2,-e]-isoquinoline analgesic and narcotic antagonistic compounds” (priority 1980, dated 1981).

The test system of series [1] is phenylquinone-induced writhing. Kind of series: Phenylquinone writhing (PQW) analgesic test, oral, mice. To be noted: for EFFECT ED50, Oral Anti-PQW: mice, phenylquinone writhing. The format is in vivo, mice (female white). How it is done: A standard procedure for detecting and comparing the analgesic activity of compounds in this series for which there is good correlation with human efficacy is the standard phenylquinone writhing test modified from Siegmund, et al., Proc. Soc. Exp. Biol. Med., 95, 729 (1957). A test compound suspended in 1% methocel® was given orally to fasted (17-21 hours) female white mice, 5-20 animals per double blind test. Aqueous (0.01% phenyl-p-benzoquinone) phenylquinone was injected intraperitoneally at 24 minutes later using 0.20 ml per mouse. […] The effective analgesic dose for 50% of the mice (ED50) was calculated by the moving average method of Thompson, W. R., Bact. Rev., 11, 115-145 (1947).
(§1) Most of the compounds were analgetic in the mouse antiphenylquinone test system and only a few caused Straub tail. Most also were antagonists in the mouse anti-Straub tail test.
(§2) On the other hand, the very high Straub tail ED50 's indicate that most of the compounds of the invention have very low likelihood of being addictive. […] Thus, the compounds of the invention are characterized by rapid onset of action, high oral potency and the ability to alleviate deepseated pain. Furthermore, abuse liability for most of the compounds should be extremely low or non-existent.
(In writhing tests, fewer writhes than in controls are read as antinociception.)

The test system of series [2] is morphine-induced Straub tail. As to the kind of experiment: Anti-Straub tail test (antagonism of morphine-induced Straub tail), mice. The format is in vivo, mice (female CF1 S). Here is the method: This property is the basis of a mouse test for narcotic antagonists.
Female CF1 S mice (fasted 17-21 hrs.), 5 per dose, were injected orally or subcutaneously with test drug at 0.67, 2, 6, 18, 54 and 162 mg/kg or other appropriate doses in 0.20 ml 1% Methocel® per mouse. Five minutes later, 30 mg/kg of morphine sulfate in 0.20 ml 1% Methocel® per mouse was given intraperitoneally starting ten minutes later, the mice were observed continuously for 5 minutes for evidence of Straub tail. Prevention of a 90° Straub tail during this observation period was taken as indication of narcotic antagonist ability.
as §1, §2

The next series has as its system Straub tail. Kind of series: Straub tail test (narcotic agonist effect), oral, mice. The format is in vivo, mice (CF1 S female). To be noted: tail erected 90° or more within 24 minutes. How it is done: Narcotic analgesics produce in mice an erection and arching of the tail (90° or more) which is referable to spinal cord stimulation. This Straub tail reaction is not produced by other analgesics, including the narcotic antagonists.
The method used was modified from Shemano, I., and Wendel, H., Tox. Appl. Pharm., 6, 334-9 (1964). CF1 S female mice (18-21 g), 10-20 mice per dose, were intubated with log scaled doses of analgesic in 1% aqueous methylcellulose. A positive Straub tail response was recorded if a tail was erected 90° or more for 5 seconds at any time within 24 minutes after dosing. A quantal Straub tail ED50 was calculated by the moving average method [Thompson, W. R., Bact. Rev., 11, 115-145 (1947)].
as §1, §2

The next series relates to opiate analgesics. To be noted: background; cited from earlier work.
For series [3] the following is noted: Lasagna and Beecher 1954; cited from earlier work.
The conditions of series [4]: background; cited from earlier work.
The subject of series [5] is morphine-induced Straub tail. The conditions noted are these: mice; Blumberg et al. 1968; cited from earlier work.

Regarding `Oc1cccc2c1O[C@H]1CCC[C@H]3CN(CC4CC4)CC[C@@]231` (relative stereo) [Example 5, 3-Cyclopropylmethyl-2,3,4,4aα,5,6,7,7aα-octahydro-1H-benzo[4,5]furo[3,2-e]isoquinolin-9-ol], in series [1] (mouse analgesia data), the “analgesic potency relative to morphine” value is recorded as “several times greater potency than morphine”.
A word on the ED50: it is the dose at which the effect has come halfway, by size or by number of responders. With `COc1cccc2c1O[C@H]1CCC[C@H]3CN(CC#N)CC[C@@]231` (relative stereo) [Example 20, 9-Methoxy-2,3,4,4aα,5,6,7,7aα-octahydro-1H-benzo[4,5]furo[3,2-e]isoquinoline-3-acetonitrile], the ED50 in series [2] (Mus musculus, sc, subcutaneous, mice, vs morphine sulfate 30 mg/kg i.p., read-out: EFFECT ED50, Anti-Straub Tail (s.c.)) stood at 27 mg/kg.
For the molecule `CN1CCC23c4cccc(O)c4OC2CCCC3C1` (single isomer, unassigned) [Example 3 (-) isomer], the “EFFECT ED50, Oral Anti-PQW” value in series [1] (listed as 3 (-) isomer) was 2.1. In series [2] (subcutaneous, mice, vs morphine sulfate 30 mg/kg i.p., listed as 3 (-) isomer), the “EFFECT ED50, Anti-Straub Tail (s.c.)” value is 0.14. Moreover, in the series with Straub tail, the “EFFECT ED50, Oral Straub-Tail” value is listed as greater than 135.
On to `C=CCN1CC[C@]23c4c5ccc(O)c4O[C@H]2[C@@H](O)C=C[C@H]3[C@H]1C5` [nalorphine], for which, in the series on opiate analgesics, the “antagonism of opiate analgesics” value is “effectively antagonize overdoses of the opiate analgesics”. Moreover, the “analgetic properties in man” value in series [3] is “also has analgetic properties in man”. The intrinsic analgesic activity result in series [4] is listed as “some analgesic effects by themselves”. Moreover, the “prevention of morphine-induced Straub tail” value in series [5] was “prevent the induction of Straub tail in mice”.
With `CN1CC[C@]23c4cccc(O)c4O[C@H]2CCC[C@H]3C1` (relative stereo) [Example 3, 3-Methyl-2,3,4,4aα,5,6,7,7aα-octahydro-1H-benzo[4,5]furo[3,2-e]isoquinolin-9-ol], in the series with Straub tail (Mus musculus, 0.4 h), the 50% effective dose (ED50) amounted to 135 mg/kg.
Take `C=CCN1CC[C@]23CCCC[C@H]2[C@H]1Cc1ccc(O)cc13` [levallorphan]: the “antagonism of opiate analgesics” value in the series on opiate analgesics is listed as “effectively antagonize overdoses of the opiate analgesics”. For the same molecule, the intrinsic analgesic activity entry in series [4] is reported as “some analgesic effects by themselves”.
Turning to `COc1cccc2c1O[C@H]1CCC[C@H]3CN(Cc4ccccc4)CC[C@@]231` (relative stereo) [Example 10, 3-Benzyl-9-methoxy-2,3,4,4aα,5,6,7,7aα-octahydro-1H-benzo[4,5]furo[3,2-e]isoquinoline], the “narcotic antagonism” value in series [2] (mouse anti-Straub tail test) is reported as “pure narcotic antagonists”.
Turning to `CN1CCC23c4cccc(O)c4OC2CCCC3C1` (single isomer, unassigned) [Example 3 (+)isomer], in series [1] (listed as 3 (+)isomer), the “EFFECT ED50, Oral Anti-PQW” value came out at 61. Further, the “EFFECT ED50, Anti-Straub Tail (s.c.)” value in series [2] (subcutaneous, mice, vs morphine sulfate 30 mg/kg i.p., listed as 3 (+)isomer) was determined as 3.3. In addition, the “EFFECT ED50, Oral Straub-Tail” value with Straub tail is recorded as greater than 135.
For `CN1CC[C@]23c4c5ccc(O)c4O[C@H]2[C@@H](O)C=C[C@H]3[C@H]1C5` [Morphine], the “EFFECT ED50, Oral Anti-PQW” value in series [1] was determined as 3.0. Besides, in the series on Straub tail, the “EFFECT ED50, Oral Straub-Tail” value is 48.
`C=CCN1CC[C@]23c4c5ccc(O)c4O[C@H]2C(=O)CC[C@@]3(O)[C@H]1C5` [naloxone]: in the series with opiate analgesics, the “antagonism of emetic effect of meperidine” value is listed as “antagonizes the emetic effect of meperidine” and the “antagonism of opiate analgesics” value was “effectively antagonize overdoses of the opiate analgesics”. Further, the “prevention of morphine-induced Straub tail” value in series [5] is “prevent the induction of Straub tail in mice”.
